Laboratory results: patent EP4178959B1, “NITROGEN HETEROCYCLIC CYTOKININ DERIVATIVES, COMPOSITIONS CONTAINING THESE DERIVATIVES AND USE THEREOF” (Univerzita Palackého v Olomouci, priority 2020, dated 2022)

Assays:
[1] = Calcein AM cytotoxicity assay, BJ cells; settings: human; for CC50 at 72 h: bj fibroblasts
Protocol: (§1) All compound concentrations were examined in duplicates. […] Zero cytotoxicity is a basic prerequisite for the use of these substances in cosmetical applications. To assess the antitumor activity, the toxicity of new derivatives on panels containing cell lines of different histogenic and species origin was tested (Table 5). […] The compounds listed in Table 5 can be divided into 2 groups.
(§2) The first group contains "classical cytokinins" represented by 6-substituted purines (their effects are already known). The second group includes novel 2-fluoro-N6-substituted-9-(2-oxacycloalkyl)-9H-purine-6-amine derivatives. […] Low cytotoxicity (high IC50 value) of the compounds is the basic prerequisite for cosmetic and medical applications. […] Table 5: Cytotoxicity of novel compounds for different normal cell lines tested / IC50 (µmol/L)

[2] = Calcein AM cytotoxicity assay, NIH3T3 cells; settings: mouse; for CC50 at 72 h: nih3t3 cells
Protocol: as §1, §2

[3] = Calcein AM cytotoxicity assay, B10A.4 cells; settings: mouse; for CC50 at 72 h: b10a.4 macrophages
Protocol: as §1, §2

excised wheat leaf tips = assay: Senescence inhibition on winter wheat leaf segments (chlorophyll retention); set-up: species or system Triticum aestivum cv. Hereward; settings: for Concentration with highest activity: retention of chlorophyll; for Activity (%) [10^-4mol.l^-1 KTHP = 100%] / Emax: retention of chlorophyll in excised wheat leaf tips, 96 h in the dark, at concentration with highest activity; for Emax: Triticum aestivum, foliar, read-out: Activity (%) [10^-4mol.l^-1 KTHP = 100%]
Protocol: Seeds of winter wheat, Triticum aestivum cv. Hereward, were washed under running water for 24 hours and then sown on vermiculite soaked with the Knop's solution. They were placed in the grow chamber at 25 °C with a 16/8 h light period at 50 μmol.m^-2.s^-1. After 7 days, the first leaf was fully developed and the second leaf had started to grow. A tip section of the first leaf, approximately 35 mm long, was removed from 5 seedlings and trimmed slightly to a combined weight of 100 mg. The basal ends of the five leaf tips were placed in the wells of a microtiter polystyrene plate containing 150 μl of the solution of the tested compound each. The entire plate was inserted into a plastic box lined with paper tissues soaked with distilled water to prevent leaf sections from drying out. […] The absorbance of the extract was recorded at 665 nm. In addition, chlorophyll extracts from fresh leaves and leaf tips incubated in deionised water were measured. From the obtained data, the concetration with the highest activity was selected for each compound tested. Relative activity of the compound at this concentration was calculated (Table 7). […] The values shown are means of five replicates and the whole experiment was repeated twice. The compounds to be tested were dissolved in dimethylsulfoxide (DMSO) and the solution brought up to 10^-3 M with distilled water. […] The compounds listed in Table 7 can be divided into 2 groups. The first group contains "classical 6,9-disubstituted purines (KTHP as a control)" known in prior art. […] Table 9: […]

[4] = Cytotoxicity IC50, B10A.4, first column headed B10A.4
[5] = Cytotoxicity IC50, B10A.4, second column headed B10A.4

Row | SMILES | IC50 at 72 h [1] [µM] | IC50 at 72 h [2] [µM] | IC50 at 72 h [3, 4] [µM] | IC50 at 72 h [3, 5] [µM] | CC50 at 72 h [1] [µM] | Concentration with highest activity (excised wheat leaf tips) | Activity (%) [10^-4mol.l^-1 KTHP = 100%] (excised wheat leaf tips) | CC50 at 72 h [2] [µM] | CC50 at 72 h [3, 4] [µM] | CC50 at 72 h [3, 5] [µM] | Emax (excised wheat leaf tips) [%]
1 | Nc1ncnc2nc[nH]c12 [Adenine, reference compound] | > 167 | > 167 | > 167 | > 167 | – | – | – | – | – | – | –
2 | CC(CO)CCNc1nc(F)nc2c1ncn2C1CCCO1 (stereo not shown) [Compound 11] | – | – | – | – | > 167 | 10^-4 mol.l^-1 | 125 (± 12) % | 139 | 146 | – | –
3 | Oc1ccccc1CNc1nc(F)nc2c1ncn2C1CCCO1 (stereo not shown) [Compound 14] | – | – | – | – | > 167 | 10^-4 mol.l^-1 | 53.6 (± 7) % | > 167 | > 167 | > 167 | –
4 | Oc1ccc(CNc2nc(F)nc3c2ncn3C2CCCO2)cc1 (stereo not shown) [Compound 16, 2-Fluoro-6-[(4-hydroxybenzyl)amino]-9-(tetrahydrofuran-2-yl)-9H-purine] | > 167 | > 167 | > 167 | – | – | – | – | – | – | – | 110
5 | COc1cccc(CNc2nc(F)nc3c2ncn3C2CCCO2)c1O (stereo not shown) [Compound 20] | – | – | – | – | 137 | 10^-4 mol.l^-1 | 50 (± 5) % | > 141 | 124 | 126 | –
6 | COc1ccc(CNc2nc(F)nc3c2ncn3C2CCCO2)c(O)c1 (stereo not shown) [Compound 21] | – | – | – | – | 132 | 10^-4 mol.l^-1 | 35 (± 9.5) % | 158 | 147 | – | –
7 | Oc1ccc(CNc2nc(F)nc3c2ncn3C2CCCO2)cc1O (stereo not shown) [Compound 33] | – | – | – | – | > 167 | 10^-4 mol.l^-1 | 71.3 (± 17) % | > 167 | > 167 | – | –
8 | Oc1cc(O)cc(CNc2nc(F)nc3c2ncn3C2CCCO2)c1 (stereo not shown) [Compound 34] | – | – | – | – | > 167 | 10^-4 mol.l^-1 | 145 (± 12) % | > 167 | > 167 | – | –
9 | COc1ccc(CNc2nc(F)nc3c2ncn3C2CCCO2)c(OC)c1 (stereo not shown) [Compound 36] | – | – | – | – | > 167 | 10^-4 mol.l^-1 | 125.6 (± 15) % | > 167 | > 167 | – | –
10 | COc1ccc(OC)c(CNc2nc(F)nc3c2ncn3C2CCCO2)c1 (stereo not shown) [Compound 37] | – | – | – | – | > 167 | 10^-4 mol.l^-1 | 121.8 (± 17) % | > 167 | > 167 | – | –
11 | COc1cccc(OC)c1CNc1nc(F)nc2c1ncn2C1CCCO1 (stereo not shown) [Compound 38] | – | – | – | – | > 167 | 10^-4 mol.l^-1 | 128 (± 16) % | > 167 | > 167 | – | –
12 | COc1ccc(CNc2nc(F)nc3c2ncn3C2CCCO2)cc1OC (stereo not shown) [Compound 39] | – | – | – | – | > 167 | 10^-4 mol.l^-1 | 126 (± 21) % | > 167 | > 167 | – | –
13 | COc1cc(CNc2nc(F)nc3c2ncn3C2CCCO2)cc(OC)c1 (stereo not shown) [Compound 40] | – | – | – | – | > 167 | 10^-4 mol.l^-1 | 163 (± 8) % | > 167 | > 167 | – | –
14 | COc1cc(CNc2nc(F)nc3c2ncn3C2CCCO2)cc(OC)c1O (stereo not shown) [Compound 41] | – | – | – | – | > 167 | 10^-4 mol.l^-1 | 42 (± 13) % | > 167 | > 167 | – | –
15 | COc1cc(O)cc(OC)c1CNc1nc(F)nc2c1ncn2C1CCCO1 (stereo not shown) [Compound 42] | – | – | – | – | > 167 | 10^-4 mol.l^-1 | 22 (± 4) % | > 167 | > 167 | – | –
16 | COc1cc(CNc2nc(F)nc3c2ncn3C2CCCO2)ccc1O (stereo not shown) [Compound 43, 2-Fluoro-6-[(4-hydroxy-3-methoxybenzyl)amino]-9-(tetrahydrofuran-2-yl)-9H-purine] | > 167 | > 167 | > 167 | – | – | – | – | – | – | – | 55

Row | SMILES | IC50 at 72 h [1] [µM] | IC50 at 72 h [2] [µM] | IC50 at 72 h [3, 4] [µM] | IC50 at 72 h [3, 5] [µM] | CC50 at 72 h [1] [µM] | Concentration with highest activity (excised wheat leaf tips) | Activity (%) [10^-4mol.l^-1 KTHP = 100%] (excised wheat leaf tips) | CC50 at 72 h [2] [µM] | CC50 at 72 h [3, 4] [µM] | CC50 at 72 h [3, 5] [µM] | Emax (excised wheat leaf tips) [%]
17 | COc1cc(O)cc(CNc2nc(F)nc3c2ncn3C2CCCO2)c1 (stereo not shown) [Compound 44] | – | – | – | – | > 167 | 10^-4 mol.l^-1 | 47 (± 11) % | > 167 | > 167 | – | –
18 | Cc1cccc(CNc2nc(F)nc3c2ncn3C2CCCO2)c1O (stereo not shown) [Compound 49] | – | – | – | – | 161 | 10^-4 mol.l^-1 | 16.4 (± 3) % | > 167 | 156 | – | –
19 | Cc1ccc(O)c(CNc2nc(F)nc3c2ncn3C2CCCO2)c1 (stereo not shown) [Compound 50] | – | – | – | – | > 167 | 10^-4 mol.l^-1 | 82 (± 12) % | > 167 | > 167 | – | –
20 | Cc1cc(CNc2nc(F)nc3c2ncn3C2CCCO2)ccc1O (stereo not shown) [Compound 51] | – | – | – | – | > 167 | 10^-4 mol.l^-1 | 19 (± 2) % | > 167 | > 167 | – | –
21 | Cc1cc(O)cc(CNc2nc(F)nc3c2ncn3C2CCCO2)c1 (stereo not shown) [Compound 52] | – | – | – | – | > 167 | 10^-4 mol.l^-1 | 23 (± 1) % | > 167 | > 167 | – | –
22 | Oc1ccoc1CNc1nc(F)nc2c1ncn2C1CCCO1 (stereo not shown) [Compound 53] | – | – | – | – | > 167 | 10^-4 mol.l^-1 | 45 (± 13) % | > 167 | > 167 | – | –
23 | Oc1ccc(CNc2nc(F)nc3c2ncn3C2CCCO2)o1 (stereo not shown) [Compound 55] | – | – | – | – | > 167 | 10^-4 mol.l^-1 | 101 (± 17) % | > 167 | > 167 | – | –
24 | Cc1ccc(CNc2nc(F)nc3c2ncn3C2CCCCO2)o1 (stereo not shown) [Compound 60, 2-Fluoro-6-[(5-methylfurfuryl)amino]-9-(tetrahydro-2H-pyran-2-yl)-9H-purine] | > 167 | > 167 | > 167 | – | – | – | – | – | – | – | 123
25 | COc1ccc(CNc2nc(F)nc3c2ncn3C2CCCCO2)o1 (stereo not shown) [Compound 63] | – | – | – | – | > 167 | 10^-4 mol.l^-1 | 97 (± 5) % | > 167 | > 167 | – | –
26 | Oc1ccc(CNc2nc(F)nc3c2ncn3C2CCCCO2)cc1 (stereo not shown) [Compound 66, 2-Fluoro-6-[(4-hydroxybenzyl)amino]-9-(tetrahydro-2H-pyran-2-yl)-9H-purine] | > 167 | > 167 | > 167 | – | – | – | – | – | – | – | 74
27 | CC(C)=CCNc1nc(F)nc2c1ncn2C1CCCCO1 (stereo not shown) [Compound 69] | – | – | – | – | 153 | 10^-4 mol.l^-1 | 108 (± 13) % | 142 | 146 | – | –
28 | C/C(=C\CNc1nc(F)nc2c1ncn2C1CCCCO1)CO (stereo not shown) [Compound 70] | – | – | – | – | > 167 | 10^-4 mol.l^-1 | 126 (± 12) % | > 167 | > 167 | – | –
29 | c1coc(CNc2ncnc3c2ncn3C2CCCCO2)c1 (stereo not shown) [KTHP, 6-furfurylamino-9-tetrahydropyranylpurine, reference compound] | – | – | – | – | – | 10^-4 mol.l^-1 | 100 (± 8.6) % | – | – | – | –
30 | c1coc(CNc2ncnc3[nH]cnc23)c1 [Kinetin, reference compound] | 148 | 133 | > 167 | 164 | – | – | – | – | – | – | –
31 | CC(C)=CCNc1ncnc2nc[nH]c12 [isopentenyladenine, reference compound] | – | – | – | – | 134 | – | – | 124 | > 167 | 147 | –
32 | Oc1ccccc1CNc1ncnc2nc[nH]c12 [ortho-topolin, reference compound] | – | – | – | – | 108 | – | – | 94.1 | 87.5 | 94.3 | –
